Laboratory results reported in US20100028457A1, “AGENT FOR PREVENTION OR TREATMENT OF BLOOD GLUCOSE LEVEL ELEVATION” (UNIVERSITY OF THE RYUKYUS, priority 2006, published 2010).

Experiments:
[1] = tested on: patients suffering from osteoporosis; conditions: 32 osteoporosis patients, daily dose 6.4 g (1.7 g as Sr), three months to three years; cited from earlier work
[2] = tested on: spontaneously obese insulin-resistant diabetic mice (KKAy); assay: Blood glucose level in KKAy mice fed test feeds; format: in vivo; conditions: for blood glucose level upon finishing the feeding, % of control group: 56th day, control group 306 mg/dl (100%), normal mice 34%; for blood glucose level, mean value: tail vein blood
Description: (§1) Firstly, four kinds of feeds were prepared for animal tests.
(§2) Feeding of the mice of those four groups was conducted in a single feeding manner and water was freely taken by each mouse.
(§3) Blood glucose level during the feeding period (until the 51st day) and blood glucose level, blood insulin concentration, blood leptin concentration and adiponectin concentration were measured when the feeding finished (on the 56th day) whereby the action of each ingredient on the mice was checked. Further, in order to compare with the diabetic model mice, normal mice (eight males) of the same 13 weeks age were used as a normal group and their blood was collected upon finishing the feeding followed by measuring each of the above concentrations.
During the feeding period for the two months, blood was collected from tail vein of the mice upon the initiation of the feeding (on the 0th day) and on the 15th, 37th and 51st days from the initiation of the feeding and the blood glucose level therein was measured.

[3] = tested on: plasma insulin; assay: Plasma insulin concentration in KKAy mice at end of feeding; format: in vivo; conditions: 56th day, control group 7.0 ng/ml (100%), normal mice 16%
Description: as §1, §2, §3
Concentration of insulin in plasma was measured upon finishing the feeding (on the 56th day).

[4] = tested on: plasma leptin; assay: Plasma leptin concentration in KKAy mice at end of feeding; format: in vivo; conditions: 56th day, control group 7.3 ng/ml (100%), normal mice 15%
Description: as §1, §2, §3
Concentration of leptin was also measured upon finishing the feeding (on the 56th day).

[5] = tested on: plasma adiponectin; assay: Plasma adiponectin concentration in KKAy mice at end of feeding; format: in vivo; conditions: 56th day, control group 1.1 μg/ml (100%), normal mice 46%
Description: as §1, §2, §3
It has been said that a plasma adiponectin which is an anti-antidiabetic and anti-arteriosclerotic factor derived from fat tissues enhances insulin sensitivity and improves insulin resistant diabetes due to its action of activating the fatty acid oxidation in systemic muscles and reducing the neutral fat amount (Iichiro Shimomura, Toru Funahashi and Yuji Matsuzawa: Adiponectin—Anti-antidiabetic and anti-arteriosclerotic factor derived from fat tissues, Molecular Medicine, Vol. 39, No. 4, 416-423, 2002). […] The concentration of adiponectin was also measured upon finishing the feeding (on the 56th day).

[6] = tested on: PPAR-γ mRNA in pancreas; assay: Quantification of expression of PPAR-γ mRNA in pancreas (real-time quantitative PCR); format: in vivo; conditions: KKAy mice after feeding; ratio to GAPDH mRNA; control group 0.28 (100%), normal mice 161%
Description: (§4) According to the conventional method, RNA was extracted from the cells of pancreas and kidney. cDNA was prepared by a reverse transcription reaction from the RNA and quantitative determination of expression amount of mRNA related to diabetes was carried out by means of a real-time quantitative PCR. In the following experiments, quantitative determination of the expression amount of mRNA was analyzed using Mx 3000P (manufactured by Stratagene). In all cases, condition for the PCR was that a hot start was conduced at 95° C. for 10 minutes and then a cycle comprising 95° C. for 30 seconds, 60° C. for 1 minute and 72° C. for 30 seconds was repeated for 45 times. At the same time, dilution rows of five stages were prepared using a control RNA of 5 ng/μl concentration and expression amount of RNA was determined from the resulting standard curve. As to a reagent for the PCR, Brilliant SYBR Green QPCR Master Mix (manufactured by Stratagene) was used in accordance with a protocol for its manual for use. […] Incidentally, expression amount of mRNA of a test substance in each test was indicated in terms of a ng ratio of the commonly expressed GAPDH enzyme to the amount of mRNA (internal standard).
The expression amount of PPAR-γ mRNA was measured by the PCR using the following primer.

[7] = tested on: adiponectin mRNA in pancreas; assay: Quantification of expression of adiponectin mRNA in pancreas (real-time quantitative PCR); format: in vivo; conditions: KKAy mice after feeding; ratio to GAPDH mRNA; control group 1.07 (100%), normal mice 145%
Description: as §4
Expression amount of adiponectin mRNA was measured by the PCR using the following primers.

[8] = tested on: PPAR-α mRNA in pancreas; assay: Quantification of expression of PPAR-α mRNA in pancreas (real-time quantitative PCR); format: in vivo; conditions: KKAy mice after feeding; ratio to GAPDH mRNA; control group 0.61 (100%), normal mice 123%
Description: as §4
The expression amount of the PPAR-α mRNA was measured by the PCR using the following primers.

[9] = tested on: insulin mRNA in pancreas; assay: Quantification of expression of insulin mRNA in pancreas (real-time quantitative PCR); format: in vivo; conditions: KKAy mice after feeding; ratio to GAPDH mRNA; control group 5.12×10^4 (100%), normal mice 11%
Description: as §4
Expression amount of insulin mRNA in the pancreas was measured by the PCR using the following primers.

[10] = tested on: PPAR-γ mRNA in kidney; assay: Quantification of expression of PPAR-γ mRNA in kidney (real-time quantitative PCR); format: in vivo; conditions: KKAy mice after feeding; ratio to GAPDH mRNA; control group 0.56 (100%)
Description: as §4
Expression amount of PPAR-γ mRNA in kidney which adjusts adiponectin and its expression promoting the fatty acid combustion in tissues thereof was measured by the PCR using the following primers.

[11] = tested on: adiponectin mRNA in kidney; assay: Quantification of expression of adiponectin mRNA in kidney (real-time quantitative PCR); format: in vivo; conditions: KKAy mice after feeding; ratio to GAPDH mRNA; control group 2.53×10^−3 (100%)
Description: as §4
Expression amount of adiponectin mRNA in kidney was measured by the PCR using the following primers.

[12] = tested on: PPAR-α mRNA in kidney; assay: Quantification of expression of PPAR-α mRNA in kidney (real-time quantitative PCR); format: in vivo; conditions: KKAy mice after feeding; ratio to GAPDH mRNA; control group 0.532 (100%)
Description: as §4
Expression amount of PPAR-α mRNA in kidney was measured by the PCR using the following primers.

[13] = tested on: PPARγ in bone marrow cells of femur; assay: Expression of PPARγ mRNA in bone marrow cells of femur (real-time quantitative PCR); format: in vivo; conditions: KKAy mice after feeding; control group 5.05×10^−2 (100%)
[14] = 15th day of feeding, control group 214
[15] = 37th day of feeding, control group 386
[16] = 51st day of feeding, control group 339
[17] = initiation of feeding (0th day), control group 167

Row | SMILES | patients in whom improvement was achieved [1] | blood glucose level upon finishing the feeding, % of control group [2] | blood glucose level, mean value [2, 14] | blood glucose level, mean value [2, 15] | blood glucose level, mean value [2, 16] | blood glucose level, mean value [2, 17] | plasma insulin concentration, % of control group [3] | plasma leptin concentration, % of control group [4] | plasma adiponectin concentration, % of control group [5] | expression amount of PPAR-γ mRNA in pancreas, % of control group [6] | expression amount of adiponectin mRNA in pancreas, % of control group [7] | expression amount of PPAR-α mRNA in pancreas, % of control group [8] | expression amount of insulin mRNA in pancreas, % of control group [9] | expression amount of PPAR-γ mRNA in kidney, % of control group [10] | expression amount of adiponectin mRNA in kidney, % of control group [11] | expression amount of PPAR-α mRNA in kidney, % of control group [12] | expression amount of PPARγ in bone marrow cells of femur, % of control group [13]
1 | CC(O)C(=O)[O-].CC(O)C(=O)[O-].[Sr+2] (stereo not drawn) [strontium lactate] | 84% |  |  |  |  |  |  |  |  |  |  |  |  |  |  |  | 
2 | [Cl-].[Cl-].[Sr+2] [Sr group, strontium chloride] |  | 55% | 200 mg/dL | 288 mg/dL | 247 mg/dL | 150 mg/dL | 70% | 71% | 42% | 181% | 117% | 104% | 64% | 136% | 123% | 169% | 65%
3 | O=[Si]([O-])[O-].[Na+].[Na+] [Si group, sodium metasilicate] |  | 86% | 231 mg/dL | 268 mg/dL | 235 mg/dL | 156 mg/dL | 68% | 76% | 70% | 125% | 128% | 116% | 9% | 141% | 135% | 171% | 50%
